Literature values in paper PMC9963398, “Discovery of New Quinolone-Based Diarylamides as Potent B-RAF^V600E/C-RAF Kinase Inhibitors Endowed with Promising In Vitro Anticancer Activity” (International Journal of Molecular Sciences, 2023).

How the values were obtained:
CCRF-CEM = tested on: CCRF-CEM; parameters: method as in PMID 32745753; conditions: Leukemia; cited from earlier work
HL-60(TB) = tested on: HL-60(TB); parameters: method as in PMID 32745753; conditions: Leukemia; cited from earlier work
K-562 = tested on: K-562; parameters: method as in PMID 32745753; conditions: K-562, Leukemia; cited from earlier work
SR = tested on: SR; parameters: method as in PMID 32745753; conditions: Leukemia; cited from earlier work
A549/ATCC = tested on: A549/ATCC; parameters: method as in PMID 32745753; conditions: NSCL cancer; cited from earlier work
NCI-H226 = tested on: NCI-H226; parameters: method as in PMID 32745753; conditions: NCI-H226, NSCL cancer; cited from earlier work
NCI-H23 = tested on: NCI-H23; parameters: method as in PMID 32745753; conditions: NCI-H23, NSCL cancer; cited from earlier work
NCI-H322M = tested on: NCI-H322M; parameters: method as in PMID 32745753; conditions: NSCL cancer; cited from earlier work
NCI-H460 = tested on: NCI-H460; parameters: method as in PMID 32745753; conditions: NCI-H460, NSCL cancer; cited from earlier work
NCI-H522 = tested on: NCI-H522; parameters: method as in PMID 32745753; conditions: NCI-H522, NSCL cancer; cited from earlier work
HCC-2998 = tested on: HCC-2998; parameters: method as in PMID 32745753; conditions: HCC-2998, Colon cancer; cited from earlier work
HCT-116 = tested on: HCT-116; parameters: method as in PMID 32745753; conditions: HCT-116, Colon cancer; cited from earlier work
HCT-15 = tested on: HCT-15; parameters: method as in PMID 32745753; conditions: HCT-15, Colon cancer; cited from earlier work
SF-268 = tested on: SF-268; parameters: method as in PMID 32745753; conditions: SF-268, CNS cancer; cited from earlier work
SF-295 = tested on: SF-295; parameters: method as in PMID 32745753; conditions: SF-295, CNS cancer; cited from earlier work
SF-539 = tested on: SF-539; parameters: method as in PMID 32745753; conditions: SF-539, CNS cancer; cited from earlier work
U251 = tested on: U251; parameters: method as in PMID 32745753; conditions: U251, CNS cancer; cited from earlier work
MALME-3M = tested on: MALME-3M; parameters: method as in PMID 32745753; conditions: Melanoma; cited from earlier work
MDA-MB-435 = tested on: MDA-MB-435; parameters: method as in PMID 32745753; conditions: MDA-MB-435, Melanoma; cited from earlier work
UACC-257 = tested on: UACC-257; parameters: method as in PMID 32745753; conditions: UACC-257, Melanoma; cited from earlier work
UACC-62 = tested on: UACC-62; parameters: method as in PMID 32745753; conditions: UACC-62, Melanoma; cited from earlier work
OVCAR-3 = tested on: OVCAR-3; parameters: method as in PMID 32745753; conditions: OVCAR-3, Ovarian cancer; cited from earlier work
OVCAR-4 = tested on: OVCAR-4; parameters: method as in PMID 32745753; conditions: OVCAR-4, Ovarian cancer; cited from earlier work
OVCAR-8 = tested on: OVCAR-8; parameters: method as in PMID 32745753; conditions: OVCAR-8, Ovarian cancer; cited from earlier work
NCI/ADR-RES = tested on: NCI/ADR-RES; parameters: method as in PMID 32745753; conditions: Ovarian cancer; cited from earlier work
SK-OV-3 = tested on: SK-OV-3; parameters: method as in PMID 32745753; conditions: SK-OV-3, Ovarian cancer; cited from earlier work
786-0 = tested on: 786-0; parameters: method as in PMID 32745753; conditions: 786-0, Renal cancer; cited from earlier work
A498 = tested on: A498; parameters: method as in PMID 32745753; conditions: A498, Renal cancer; cited from earlier work
ACHN = tested on: ACHN; parameters: method as in PMID 32745753; conditions: Renal cancer; cited from earlier work
RXF 393 = tested on: RXF 393; parameters: method as in PMID 32745753; conditions: RXF 393, Renal cancer; cited from earlier work
SN12C = tested on: SN12C; parameters: method as in PMID 32745753; conditions: Renal cancer; cited from earlier work
DU-145 = tested on: DU-145; parameters: method as in PMID 32745753; conditions: DU-145, Prostate cancer; cited from earlier work
MCF7 = tested on: MCF7; parameters: method as in PMID 32745753; conditions: MCF7, Breast cancer; cited from earlier work
BT-549 = tested on: BT-549; parameters: method as in PMID 32745753; conditions: BT-549, Breast cancer; cited from earlier work
T-47D = tested on: T-47D; parameters: method as in PMID 32745753; conditions: Breast cancer; cited from earlier work
PC-3 = conditions: PC-3, Prostate cancer; cited from earlier work
MDA-MB-231/ATCC = conditions: Breast cancer; cited from earlier work

CNC(=O)c1cc(Oc2ccc(NC(=O)Nc3ccc(Cl)c(C(F)(F)F)c3)cc2)ccn1 [Sorafenib]
GI50 (CCRF-CEM): 2.2 µM | GI50 (HL-60(TB)): 1.6 µM | GI50 (K-562): 2.8 µM | GI50 (SR): 3.1 µM | GI50 (A549/ATCC): 2.9 µM | GI50 (NCI-H226): 1.9 µM | GI50 (NCI-H23): 1.8 µM | GI50 (NCI-H322M): 2.8 µM | GI50 (NCI-H460): 2.3 µM | GI50 (NCI-H522): 2.1 µM | GI50 (HCC-2998): 3 µM | GI50 (HCT-116): 1.7 µM | GI50 (HCT-15): 2.5 µM | GI50 (SF-268): 2.5 µM | GI50 (SF-295): 1.6 µM | GI50 (SF-539): 1.6 µM | GI50 (U251): 2.1 µM | GI50 (MALME-3M): 2.2 µM | GI50 (MDA-MB-435): 1.8 µM | GI50 (UACC-257): 2.2 µM | GI50 (UACC-62): 1.7 µM | GI50 (OVCAR-3): 2.9 µM | GI50 (OVCAR-4): 3.5 µM | GI50 (OVCAR-8): 3 µM | GI50 (NCI/ADR-RES): 2.5 µM | GI50 (SK-OV-3): 2.3 µM | GI50 (786-0): 3.4 µM | GI50 (A498): 2.3 µM | GI50 (ACHN): 2.8 µM | GI50 (RXF 393): 3.4 µM | GI50 (SN12C): 2.4 µM | GI50 (DU-145): 3.3 µM | GI50 (MCF7): 2.8 µM | GI50 (BT-549): 3.3 µM | GI50 (T-47D): 1.8 µM | GI50 (PC-3): 2 µM | GI50 (MDA-MB-231/ATCC): 1.3 µM
